# Results as given in patent US11535643B2, “Macrolides with modified desosamine sugars and uses thereof” (President and Fellows of Harvard College, priority 2015, dated 2022).
# What was measured:
# Format in all cases: cell-based
# S. aureus = experiment: Broth dilution MIC determination (CLSI) against S. aureus strains; conditions: for MIC S. aureus ATCC29213: ATCC29213, Strain No. MP-12; for MIC S. aureus ATCCBAA-977: ATCCBAA-977, Strain No. MP-17; for MIC S. aureus (MRSA) GISA USA600: GISA USA600, Strain No. MP-619 UNT-120; for MIC S. aureus (MRSA) ST-228 cErm: Strain No. MP-513; for MIC S. aureus (MRSA) USA100: USA100, Strain No. MP-618 UNT-096; for MIC S. aureus (MRSA) USA300: USA300, Strain No. MP-549; for MIC S. aureus (MRSA) ermA phenotype: Strain No. MP-620 UNT-146
# Source text: (§1) Minimum inhibitory concentrations (MICs) for macrolides described herein have been determined for unique strains of S. aureus, S. pneumoniae, S. pyogenes, E. faecalis, E. coli, A. baumannii, K. pneumoniae, P. aeruginosa, and H. influenzae, including several multidrug-resistant strains, with a special focus on macrolide resistant mechanisms. Azithromycin and solithromycin were included as control compounds. CLSI standard procedures for broth dilution MIC determination were used. Data for exemplary compounds described herein is shown in Tables M1-M7 and in Tables N1-N4.
# S. pneumoniae = experiment: Broth dilution MIC determination (CLSI) against S. pneumoniae strains; conditions: for MIC S. pneumoniae ATCC49619: ATCC49619, Strain No. MP-21
# Source text: as §1
# S. pyogenes = experiment: Broth dilution MIC determination (CLSI) against S. pyogenes strains; conditions: for MIC S. pyogenes ATCC19615: ATCC19615, Strain No. MP-19; for MIC S. pyogenes mac resistant: Strain No. MP-625 UNT-014
# Source text: as §1
# E. faecalis = experiment: Broth dilution MIC determination (CLSI) against E. faecalis strains; conditions: for MIC E. faecalis ATCC29212: ATCC29212, Strain No. MP-24; for MIC E. faecalis van resistant: Strain No. UNT-039
# Source text: as §1
# E. coli = experiment: Broth dilution MIC determination (CLSI) against E. coli strains; conditions: for MIC E. coli ATCC25922: ATCC25922, Strain No. MP-4; for MIC E. coli ATCC25922:tolC: Strain No. MP-9; for MIC E. coli clinical: Strain No. MP541; for MIC E. coli clinical-cErm: Strain No. MP532
# Source text: as §1
# A. baumannii = experiment: Broth dilution MIC determination (CLSI) against A. baumannii strains; conditions: for MIC A. baumannii ATCC19606: ATCC19606, Strain No. MP-15
# Source text: as §1
# K. pneumoniae = experiment: Broth dilution MIC determination (CLSI) against K. pneumoniae strains; conditions: for MIC K. pneumoniae ATCC10031: ATCC10031, Strain No. MP-14
# Source text: as §1, with “used.” for “used. Data for exemplary compounds described herein is shown in Tables M1-M7 and in Tables N1-N4.”
# P. aeruginosa = experiment: Broth dilution MIC determination (CLSI) against P. aeruginosa strains; conditions: for MIC P. aeruginosa ATCC27853: ATCC27853, Strain No. MP-3; for MIC P. aeruginosa PAO1: PAO1, Strain No. MP-7; for MIC P. aeruginosa PAO1:mex: Strain No. MP-8
# Source text: as §1
structure (smiles),measurement,setting,value
CCC1OC(=O)C(C)C(=O)C(C)C(OC2OC(C)CC(NCC(=O)O)C2O)C(C)(OC)CC(C)CNC(C)C2N(CCCCn3cc(-c4cccc(N)c4)nn3)C(=O)OC12C (stereo not drawn) [FSM-120368],MIC S. aureus ATCC29213,S. aureus,>64 µg/mL
same,MIC S. aureus ATCCBAA-977,S. aureus,>64 µg/mL
same,MIC S. aureus (MRSA) GISA USA600,S. aureus,>64 µg/mL
same,MIC S. aureus (MRSA) ST-228 cErm,S. aureus,>64 µg/mL
same,MIC S. aureus (MRSA) USA100,S. aureus,>64 µg/mL
same,MIC S. aureus (MRSA) USA300,S. aureus,>64 µg/mL
same,MIC S. aureus (MRSA) ermA phenotype,S. aureus,>64 µg/mL
same,MIC S. pneumoniae ATCC49619,S. pneumoniae,16 µg/mL
same,MIC S. pneumoniae mefA,S. pneumoniae; Strain No. MP-626 UNT-038,16 µg/mL
same,MIC S. pneumoniae mefA,S. pneumoniae; Strain No. MP-627 UNT-039,8 µg/mL
same,MIC S. pyogenes ATCC19615,S. pyogenes,8 µg/mL
same,MIC S. pyogenes mac resistant,S. pyogenes,32 µg/mL
same,MIC E. faecalis ATCC29212,E. faecalis,>64 µg/mL
same,MIC E. faecalis van resistant,E. faecalis,>64 µg/mL
same,MIC E. coli ATCC25922,E. coli,>64 µg/mL
same,MIC E. coli ATCC25922:tolC,E. coli,>64 µg/mL
same,MIC E. coli clinical,E. coli,>64 µg/mL
same,MIC E. coli clinical-cErm,E. coli,>64 µg/mL
same,MIC A. baumannii ATCC19606,A. baumannii,>64 µg/mL
same,MIC A. baumannii clinical,A. baumannii; Strain No. MP576,>64 µg/mL
same,MIC A. baumannii clinical,A. baumannii; Strain No. MP577,>64 µg/mL
same,MIC K. pneumoniae ATCC10031,K. pneumoniae,>64 µg/mL
same,MIC K. pneumoniae clinical,K. pneumoniae; Strain No. MP546,>64 µg/mL
same,MIC K. pneumoniae clinical,K. pneumoniae; Strain No. MP548,>64 µg/mL
same,MIC P. aeruginosa ATCC27853,P. aeruginosa,>64 µg/mL
same,MIC P. aeruginosa PAO1,P. aeruginosa,>64 µg/mL
same,MIC P. aeruginosa PAO1:mex,P. aeruginosa,>64 µg/mL
CCC1OC(=O)C(C)C(=O)C(C)C(OC2OC(CNCc3ccc(F)cc3)CC(N(C)C)C2O)C(C)(OC)CC(C)CNC(C)C2N(CCCCn3cc(-c4cccc(N)c4)nn3)C(=O)OC12C (stereo not drawn) [FSM-120391],MIC S. aureus ATCC29213,S. aureus,4 µg/mL
same,MIC S. aureus ATCCBAA-977,S. aureus,4 µg/mL
same,MIC S. aureus (MRSA) GISA USA600,S. aureus,>64 µg/mL
same,MIC S. aureus (MRSA) ST-228 cErm,S. aureus,>64 µg/mL
same,MIC S. aureus (MRSA) USA100,S. aureus,>64 µg/mL
same,MIC S. aureus (MRSA) USA300,S. aureus,4 µg/mL
same,MIC S. aureus (MRSA) ermA phenotype,S. aureus,>64 µg/mL
same,MIC S. pneumoniae ATCC49619,S. pneumoniae,<0.03 µg/mL
same,MIC S. pneumoniae mefA,S. pneumoniae; Strain No. MP-626 UNT-038,0.06 µg/mL
same,MIC S. pneumoniae mefA,S. pneumoniae; Strain No. MP-627 UNT-039,0.125 µg/mL
same,MIC S. pyogenes ATCC19615,S. pyogenes,<0.03 µg/mL
same,MIC S. pyogenes mac resistant,S. pyogenes,0.5 µg/mL
same,MIC E. faecalis ATCC29212,E. faecalis,1 µg/mL
same,MIC E. faecalis van resistant,E. faecalis,>64 µg/mL
same,MIC E. coli ATCC25922,E. coli,4 µg/mL
same,MIC E. coli ATCC25922:tolC,E. coli,0.25 µg/mL
same,MIC E. coli clinical,E. coli,8 µg/mL
same,MIC E. coli clinical-cErm,E. coli,>64 µg/mL
same,MIC A. baumannii ATCC19606,A. baumannii,64 µg/mL
same,MIC A. baumannii clinical,A. baumannii; Strain No. MP576,>64 µg/mL
same,MIC A. baumannii clinical,A. baumannii; Strain No. MP577,16 µg/mL
same,MIC K. pneumoniae ATCC10031,K. pneumoniae,4 µg/mL
same,MIC K. pneumoniae clinical,K. pneumoniae; Strain No. MP546,64 µg/mL
same,MIC K. pneumoniae clinical,K. pneumoniae; Strain No. MP548,32 µg/mL
same,MIC P. aeruginosa ATCC27853,P. aeruginosa,64 µg/mL
same,MIC P. aeruginosa PAO1,P. aeruginosa,>64 µg/mL
same,MIC P. aeruginosa PAO1:mex,P. aeruginosa,16 µg/mL
